Tests used:
rat hepatocytes = experiment: in vitro metabolism in rat hepatocytes in suspension (GC-MS); assay type: in vitro ADME; settings: incubated with hepatocytes isolated from rats, 'substantially no' = below limit of detection, i.e. <1%
Source text: Decrease of Lilial™ and the compound released by the precursor of the present invention, and formation of the corresponding benzoic acid derivative may be analysed by GC-MS.
By “substantially no benzoic acid derivative” is meant that the concentration of said derivative is below the limit of detection, i.e. <1%. As such, the precursor releasing the compound of formula (I) provides perfumers with an eminently suitable surrogate for the valuable yet problematic Lilial™.

guinea-pigs = settings: guinea pig, in vivo; cited from earlier work
mice = settings: mouse, in vivo; cited from earlier work
primates = settings: cited from earlier work

enzymatic degradation to / formation of the corresponding benzoic acid derivative (rat hepatocytes)	enzymatic degradation to / formation of the corresponding benzoic acid derivative (rat hepatocytes; listed as compound released by the precursor of the present invention)	SMILES	effects (reproductive toxicity) (guinea-pigs)	effects (reproductive toxicity) (mice)	effects (reproductive toxicity) (primates)
no, or substantially no	not susceptible	Cc1cc(CC(C)C)ccc1CCC=O [compound of formula (I), 3-(4-isobutyl-2-methylphenyl)propanal]			
		CC(C=O)Cc1ccc(C(C)(C)C)cc1 (centres unmarked) [Lilial™, 3-(4-tert-butylphenyl)-2-methylpropanal]	No effects	No effects	No effects

From patent US10047031B2, “Organic compounds” (GIVAUDAN SA, priority 2014, dated 2018)
